Earlier results as cited in patent US9255091B2, “Benzothiazole-based pyridinium compounds” (The University of Montana, priority 2011, dated 2016).

Biological target: AChE P-site (Homo sapiens (Human), UniProt P22303)
Details: binds selectively to the AChE P-site; read-out: equilibrium dissociation constant

Sequence of AChE P-site (P22303 32-614 limits assumed): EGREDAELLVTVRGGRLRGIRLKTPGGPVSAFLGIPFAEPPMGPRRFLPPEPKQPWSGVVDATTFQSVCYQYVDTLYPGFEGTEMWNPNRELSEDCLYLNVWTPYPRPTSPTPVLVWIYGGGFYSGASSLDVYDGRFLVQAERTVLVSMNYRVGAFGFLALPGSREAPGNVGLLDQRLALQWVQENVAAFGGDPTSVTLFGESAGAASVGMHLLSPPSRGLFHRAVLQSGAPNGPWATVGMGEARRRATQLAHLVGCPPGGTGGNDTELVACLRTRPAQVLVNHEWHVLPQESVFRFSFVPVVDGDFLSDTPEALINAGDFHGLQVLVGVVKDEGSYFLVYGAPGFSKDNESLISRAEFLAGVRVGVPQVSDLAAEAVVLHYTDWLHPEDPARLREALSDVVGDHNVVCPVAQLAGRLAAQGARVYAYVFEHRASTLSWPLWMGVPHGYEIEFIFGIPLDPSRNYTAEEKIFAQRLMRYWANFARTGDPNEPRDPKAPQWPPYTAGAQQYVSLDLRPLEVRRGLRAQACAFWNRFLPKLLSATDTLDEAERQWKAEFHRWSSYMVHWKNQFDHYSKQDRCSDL

Compound: Cc1ccc2c(c1)sc(-c1ccc(N(C)C)cc1)[n+]2C [Thioflavin T]
- Kd: 1 µM
